Assay results taken from US9592237B2, “Use of CB1 antagonists and/or inverse agonists for the preparation of drugs that increase motor neuron excitability” (Fundacion Del Hospital Nacional De Paraplejicos Para La …, priority 2009, dated 2017).

Tests used:
[1] = system: Male adult Wistar rats; experiment: Forced run on conveyer belt (fatigue), uninjured rats; type: in vivo, rat; settings: 0.25 mg/Kg intraperitoneal; for effect on latency (Δ latency) in forced run: after injection, compared with carrier, result in words; for improvement in resistance to fatigue (decrease in latency) with respect to carrier: single injection, average
Protocol: (§1) Animals. Male adult Wistar rats were used (300-350 g; 12 weeks old), obtained from Harlan-Interfauna Ibérica (Barcelona, Spain) kept in our animal house in a light:dark cycle of 12:12 hours, receiving food and water ad libitum. The animals were handled in accordance with the guides published in the “NIH Guide for the Care and Use of Laboratory Animals”, the principles covered by the “Guidelines for the Use of Animals in Neuroscience Research” published by the American Neuroscience Society, and the European Union Guidelines (Directive 86/609/EEC). The rats were assigned to the groups with injection of carrier or the CB1 antagonists/inverse agonists (rimonabant (SR141716A) or AM281). Five uninjured animals and 3 injured animals were used for each group.
(§2) The rats were acclimatized to the conveyer belt making them walk on the belt at low speed. The forced run protocol consisted of a first session of 15 minutes run (20 m/min, 5% inclination) followed by a second session 2 hours later (Fatigue 2 h). The same protocol was repeated the following day to study the continuance of the effects observed with the treatment (Fatigue 24 h). In order to keep the rats running throughout the study, mild electric shock was used (20 mV, 1.67 Hz) and, possible, gentle touches by the experimenter's hand. The drugs were administered immediately after the first session of the first day. The treatments consisted of a single intraperitoneal injection of SR141716A (0.25 mg/Kg), or AM281 (0.25 mg/Kg), or carrier (2.5% Bovine Serum Albumin, SIGMA, Spain, in 0.9% NaCl).
Latency was defined as the number of seconds during the experiment where the animals touched the grille located at the end of the conveyer belt. The animals that remained more than twice at the electric grille receiving discharges of over 10 seconds were considered exhausted and were returned to their cages. In this case, latency time was also considered the remaining time until the end of the protocol. The latency increase (αlatency) was calculated as the difference between the action of the rat at each time minus the values of the first session. Therefore, the negative measurements reflect a decrease in latency, and, therefore, an improvement in motor capacity.

[2] = system: healthy volunteers; experiment: Intracortical facilitation (ICF), paired-pulse TMS; type: in vivo, human; settings: % of response to test stimulus without conditioning stimulus; 24 hours after single dose of 20 mg; baseline 117±21%; P=0.0212; ±SD
Protocol: (§3) A neurophysiological examination was carried out before and 24 hours after administration of a single dose of 20 mg of rimonabant.
(§4) Using transcranial magnetic stimulation (TMS) we evaluate the electromyographic response thresholds in the first dorsal interosseous (FDI) at rest and during voluntary contraction. Using transcranial electric stimulation (TES) we evaluate the electromyographic response thresholds in the first dorsal interosseous during voluntary contraction. Transcranial electric stimulation tends to activate the axons of the corticospinal neurons in the white matter whilst magnetic stimulation activates the same fibres trans-synaptically (Hallett, 2000 Jul. 13, 406 (6792):147-50). Therefore, the response evoked electrically are not as sensitive to changes in cortical excitability as those evoked by magnetic stimulation. We also evaluate short-latency intracortical facilitation (ICF). ICF was studied using the technique of Kujirai et al. (J Physiol. 1993 Nov; 471:501-19). […]
The response facilitation conditional upon the three different ISIs studied was then averaged to give a magnified average value. The amplitude of the motor evoked potentials was expressed as percentages of amplitude of the motor evoked potentials of the tests. […]

[3] = system: healthy volunteers; experiment: Adverse effects observed in subjects of the stimulation study; type: in vivo, human; settings: single dose of 20 mg
Protocol: as §3
Nine healthy volunteers (average age±S.D 32.1±5.8 years) participated in the experiments using TMS (transcranial magnetic stimulation) and six participated in the experiments with electric stimulation. All subjects gave their informed written consent. The study was developed in accordance with the Declaration of Helsinki and approved by the Local Ethics Committee. The magnetic stimulation was developed using two Magstim 200 high-power magnetic stimulators (Magstim Co., Whitland, UK) connected to the Bistim Module during all measurements. A figure of 8 shaped coil was placed with an external diameter of 9 cm on the right motor cortex, in optimal position of the head to provoke a motor response in the contralateral first dorsal interosseous. The current induced a flow in the posteroanterior direction. The rest motor threshold (RMT) was defined as the stimulus of minimum intensity capable of producing a motor evoked response at rest (of around 50 μV in 50% of the 10 attempts). The active motor threshold (AMTtms) was defined as the stimulus of minimum intensity capable of producing a motor evoked response (around 200 μV in 50% of the 10 attempts) during the isometric contraction of the muscle tested at approximately 20% of the maximum. A constant voluntary contraction level was maintained by electromyogram display oscilloscope placed in front of the subject.
In six subjects we also performed electric stimulation of the motor cortex during voluntary contraction. This was performed with a Digitimer D180A digital stimulator with a time constant of 50 μs. The cathode was placed in the vertex and the anode at 7 cm laterally (anodic stimulation). We evaluate the active electric motor threshold (AMTtes) defined as the stimulus of minimum intensity capable of producing a motor evoked response of around 200 μV in 50% of ten attempts during the voluntary contraction.

[4] = system: healthy volunteers; experiment: Motor thresholds by transcranial magnetic stimulation (TMS), first dorsal interosseous; type: in vivo, human; settings: % of maximum stimulator output, 24 hours after single dose of 20 mg, ±SD
Protocol: (§5) The objective of the present experiments was to use transcranial magnetic and electric stimulation to test the effects of a single dose of 20 mg of rimonabant in motor cortex and spinal motor neuron excitability.
as §3, §4

[5] = system: rats with moderate spinal cord lesion; experiment: Modified forced run on conveyer belt, rats with moderate spinal cord lesion; type: in vivo, rat; settings: 0.25 mg/Kg intraperitoneal; for improvement in resistance to fatigue (decrease in latency) with respect to carrier: 7 days after lesion, average
Protocol: as §1
as §2, with “The treatments consisted of a single intraperitoneal injection of SR141716A (0.25 mg/Kg), or AM281 (0.25 mg/Kg), or carrier (2.5% Bovine Serum Albumin, SIGMA, Spain, in 0.9% NaCl).” left out
Latency was defined as the number of seconds during the experiment where the animals touched the grille located at the end of the conveyer belt. […] The latency increase (αlatency) was calculated as the difference between the action of the rat at each time minus the values of the first session. […]
6 animals were subjected to a moderate spinal cord lesion by, using the “Infinite Horizon” motorized system (Precision Systems & Instrumentation, [PSI], Lexington, Ky.). […] The hydration state was monitored as was the presence of possible infections in the animals until the end of the experiment. […]

[6] = system: healthy volunteers; experiment: Active motor threshold by transcranial electric stimulation (TES); type: in vivo, human; settings: % of maximum stimulator output; 24 hours after single dose of 20 mg; six subjects; baseline 19.6±6%; P=0.0164; ±SD
Protocol: as §5, §3
Using transcranial magnetic stimulation (TMS) we evaluate the electromyographic response thresholds in the first dorsal interosseous (FDI) at rest and during voluntary contraction. Using transcranial electric stimulation (TES) we evaluate the electromyographic response thresholds in the first dorsal interosseous during voluntary contraction. Transcranial electric stimulation tends to activate the axons of the corticospinal neurons in the white matter whilst magnetic stimulation activates the same fibres trans-synaptically (Hallett, 2000 Jul. 13, 406 (6792):147-50). Therefore, the response evoked electrically are not as sensitive to changes in cortical excitability as those evoked by magnetic stimulation. We also evaluate short-latency intracortical facilitation (ICF). ICF was studied using the technique of Kujirai et al. (J Physiol. 1993 Nov; 471:501-19).
In six subjects we also performed electric stimulation of the motor cortex during voluntary contraction. This was performed with a Digitimer D180A digital stimulator with a time constant of 50 μs. […]

Row | SMILES | effect on latency (Δ latency) in forced run [1] | improvement in resistance to fatigue (decrease in latency) with respect to carrier ([1]; 2 hours after fatigue) | improvement in resistance to fatigue (decrease in latency) with respect to carrier ([1]; 24 hours after fatigue) | intracortical facilitation (ICF), mean [2] | duration of agitation and anxiety, average ([3]; affected subjects) | effects on attention ([3]; healthy volunteers) | subjects with agitation and anxiety ([3]; nine healthy volunteers) | subjects with nauseas ([3]; nine healthy volunteers, during 24 h) | active motor threshold using transcranial magnetic stimulation (AMTtms), mean ([4]; baseline 39±4%, P=0.0008) | resting motor threshold using transcranial magnetic stimulation (RMT), mean ([4]; baseline 48±6%, P=0.0775 (not significant)) | effect on latency (Δ latency) in forced run ([5]; 2 hours after injection compared with carriers, result in words) | improvement in resistance to fatigue (decrease in latency) with respect to carrier ([5]; 2 hours after fatigue) | improvement in resistance to fatigue (decrease in latency) with respect to carrier ([5]; 24 hours after fatigue) | active motor threshold using transcranial electric stimulation (AMTtes), mean [6]
1 | Cc1c(C(=O)NN2CCOCC2)nn(-c2ccc(Cl)cc2Cl)c1-c1ccc(I)cc1 [AM281] | decreased latency | 185 s | 207 s |  |  |  |  |  |  |  |  |  |  | 
2 | Cc1c(C(=O)NN2CCCCC2)nn(-c2ccc(Cl)cc2Cl)c1-c1ccc(Cl)cc1 [rimonabant, N-(piperidin-1-yl)-5-(4-chlorophenyl)-1-(2,4-dichlorophenyl)-4-methyl-1H-pyrazole-3-carboxamide] | decreased latency | 75 s | 125 s | 150±40% | 6 h | moderate | Three of the subjects experienced agitation and anxiety | one suffered nauseas | 35.5±4% | 46.5±6% | decreased latency | 136 s | 200 s | 17.5±6%
